ChEMBL document CHEMBL4138123, “Design, synthesis and biological evaluation of novel pyrazolochalcones as potential modulators of PI3K/Akt/mTOR pathway and inducers of apoptosis in breast cancer cells” (Eur J Med Chem, 2017)

Columns and labels:
DU-145 = experiment: Cytotoxicity against human DU145 cells assessed as cell growth at 1 uM after 48 hrs by sulforhodamine B assay relative to control; format: functional; conditions: DU-145, 48 h, read-out: Activity
RXF 393 [1] = experiment: Cytotoxicity against human RXF393 cells assessed as cell growth at 1 uM after 48 hrs by sulforhodamine B assay relative to control; format: functional; conditions: RXF 393, 48 h, read-out: Activity
NCI-H322M = experiment: Cytotoxicity against human NCI-H322M cells assessed as growth inhibition after 48 hrs by sulforhodamine B assay; format: functional; conditions: for CC50: read-out: LC50 (the source's name)
K562 = experiment: Cytotoxicity against human K562 cells assessed as cell growth at 10 uM after 48 hrs by sulforhodamine B assay relative to control; format: functional; conditions: K562, 48 h, read-out: Activity
NCI-H460 = experiment: Cytotoxicity against human NCI-H460 cells assessed as cell growth at 0.1 uM after 48 hrs by sulforhodamine B assay relative to control; format: functional; conditions: NCI-H460, 48 h, read-out: Activity
OVCAR-5 [2] = experiment: Cytotoxicity against human OVCAR5 cells assessed as cell growth at 0.01 uM after 48 hrs by sulforhodamine B assay relative to control; format: functional; conditions: OVCAR-5, 48 h, read-out: Activity
OVCAR-3 = experiment: Cytotoxicity against human OVCAR3 cells assessed as cell growth at 0.01 uM after 48 hrs by sulforhodamine B assay relative to control; format: functional; conditions: OVCAR-3, 48 h, read-out: Activity
SK-OV-3 = experiment: Cytotoxicity against human SKOV3 cells assessed as cell growth at 10 uM after 48 hrs by sulforhodamine B assay relative to control; format: functional; conditions: SK-OV-3, 48 h, read-out: Activity
NCI-H23 [3] = experiment: Cytotoxicity against human NCI-H23 cells assessed as cell growth at 0.01 uM after 48 hrs by sulforhodamine B assay relative to control; format: functional; conditions: NCI-H23, 48 h, read-out: Activity
HCC 2998 = experiment: Cytotoxicity against human HCC2998 cells assessed as cell growth at 0.1 uM after 48 hrs by sulforhodamine B assay relative to control; format: functional; conditions: HCC 2998, 48 h, read-out: Activity
NCI/ADR-RES = experiment: Cytotoxicity against human NCI/ADR-RES cells assessed as cell growth at 0.01 uM after 48 hrs by sulforhodamine B assay relative to control; format: functional; conditions: read-out: Activity
HL-60(TB) = experiment: Cytotoxicity against human HL-60(TB) cells assessed as cell growth at 100 uM after 48 hrs by sulforhodamine B assay relative to control; format: functional; conditions: HL-60, 48 h, read-out: Activity
COLO 205 = experiment: Cytotoxicity against human COLO205 cells assessed as cell growth at 0.1 uM after 48 hrs by sulforhodamine B assay relative to control; format: functional; conditions: COLO 205, 48 h, read-out: Activity
OVCAR-4 [4] = experiment: Cytotoxicity against human OVCAR4 cells assessed as growth inhibition after 48 hrs by sulforhodamine B assay; format: functional; conditions: OVCAR-4, 48 h
U-251 = experiment: Cytotoxicity against human U251 cells assessed as cell growth at 100 uM after 48 hrs by sulforhodamine B assay relative to control; format: functional; conditions: U-251, 48 h, read-out: Activity
PC-3 = experiment: Cytotoxicity against human PC3 cells assessed as growth inhibition after 48 hrs by sulforhodamine B assay; format: functional; conditions: PC-3, 48 h
NCI-H226 = experiment: Cytotoxicity against human NCI-H226 cells assessed as growth inhibition after 48 hrs by sulforhodamine B assay; format: functional; conditions: NCI-H226, 48 h
OVCAR-5 [5] = experiment: Cytotoxicity against human OVCAR5 cells assessed as cell growth at 100 uM after 48 hrs by sulforhodamine B assay relative to control; format: functional; conditions: OVCAR-5, 48 h, read-out: Activity
RXF 393 [6] = experiment: Cytotoxicity against human RXF393 cells assessed as cell growth at 10 uM after 48 hrs by sulforhodamine B assay relative to control; format: functional; conditions: RXF 393, 48 h, read-out: Activity
UACC-257 [7] = experiment: Cytotoxicity against human UACC257 cells assessed as cell growth at 1 uM after 48 hrs by sulforhodamine B assay relative to control; format: functional; conditions: UACC-257, 48 h, read-out: Activity
OVCAR-4 [8] = experiment: Cytotoxicity against human OVCAR4 cells assessed as cell growth at 100 uM after 48 hrs by sulforhodamine B assay relative to control; format: functional; conditions: OVCAR-4, 48 h, read-out: Activity
MDA-MB-231 = experiment: Cytotoxicity against human MDA-MB-231 cells assessed as growth inhibition after 48 hrs by MTT assay; format: functional, cell-based; conditions: MDA-MB-231, 48 h
MCF7 = experiment: Cytotoxicity against human MCF7 cells assessed as cell growth at 1 uM after 48 hrs by sulforhodamine B assay relative to control; format: functional; conditions: MCF7, 48 h, read-out: Activity
NCI-H23 [9] = experiment: Cytotoxicity against human NCI-H23 cells assessed as cell growth at 100 uM after 48 hrs by sulforhodamine B assay relative to control; format: functional; conditions: NCI-H23, 48 h, read-out: Activity
UO-31 = experiment: Cytotoxicity against human UO31 cells assessed as cell growth at 1 uM after 48 hrs by sulforhodamine B assay relative to control; format: functional; conditions: UO-31, 48 h, read-out: Activity
UACC-257 [10] = experiment: Cytotoxicity against human UACC257 cells assessed as cell growth at 100 uM after 48 hrs by sulforhodamine B assay relative to control; format: functional; conditions: UACC-257, 48 h, read-out: Activity
MOLT-4 = experiment: Cytotoxicity against human MOLT4 cells assessed as cell growth at 0.1 uM after 48 hrs by sulforhodamine B assay relative to control; format: functional; conditions: MOLT-4, 48 h, read-out: Activity
HCT-116 = experiment: Cytotoxicity against human HCT116 cells assessed as growth inhibition after 48 hrs by sulforhodamine B assay; format: functional; conditions: HCT-116, 48 h
SN12C [11] = experiment: Cytotoxicity against human SN12C cells assessed as cell growth at 1 uM after 48 hrs by sulforhodamine B assay relative to control; format: functional; conditions: read-out: Activity
OVCAR-8 = experiment: Cytotoxicity against human OVCAR8 cells assessed as cell growth at 100 uM after 48 hrs by sulforhodamine B assay relative to control; format: functional; conditions: OVCAR-8, 48 h, read-out: Activity
NCI-H522 = experiment: Cytotoxicity against human NCI-H522 cells assessed as cell growth at 0.01 uM after 48 hrs by sulforhodamine B assay relative to control; format: functional; conditions: NCI-H522, 48 h, read-out: Activity
SN12C [12] = experiment: Cytotoxicity against human SN12C cells assessed as cell growth at 0.1 uM after 48 hrs by sulforhodamine B assay relative to control; format: functional; conditions: read-out: Activity
SNB-19 = experiment: Cytotoxicity against human SNB19 cells assessed as cell growth at 0.01 uM after 48 hrs by sulforhodamine B assay relative to control; format: functional; conditions: SNB-19, 48 h, read-out: Activity
TK-10 = experiment: Cytotoxicity against human TK10 cells assessed as cell growth at 10 uM after 48 hrs by sulforhodamine B assay relative to control; format: functional; conditions: TK-10, 48 h, read-out: Activity
HT-29 = experiment: Cytotoxicity against human HT-29 cells assessed as cell growth at 10 uM after 48 hrs by sulforhodamine B assay relative to control; format: functional; conditions: HT-29, 48 h, read-out: Activity

COc1ccc(C(=O)/C=C/c2cc(-c3ccc(OC)c(OC)c3)n[nH]2)cc1OC
growth at 1 µM (DU-145): 73%
growth at 1 µM (RXF 393 [1]): 76%
GI50 (NCI-H322M): 2670 nM
TGI (NCI-H322M): 8230 nM
CC50 (NCI-H322M): > 100000 nM
growth at 10 µM (K562): 3%
growth at 0.1 µM (NCI-H460): 99%
growth at 0.01 µM (OVCAR-5 [2]): 88%
growth at 0.01 µM (OVCAR-3): 107%
growth at 10 µM (SK-OV-3): 9%
growth at 0.01 µM (NCI-H23 [3]): 101%
growth at 0.1 µM (HCC 2998): 101%
growth at 0.01 µM (NCI/ADR-RES): 104%
growth at 100 µM (HL-60(TB)): 1%
growth at 0.1 µM (COLO 205): 98%
GI50 (OVCAR-4 [4]): 1920 nM
TGI (OVCAR-4 [4]): 8150 nM
growth at 100 µM (U-251): -53%
GI50 (PC-3): 1980 nM
TGI (PC-3): 35700 nM
GI50 (NCI-H226): 1660 nM
TGI (NCI-H226): 4230 nM
growth at 100 µM (OVCAR-5 [5]): -41%
growth at 10 µM (RXF 393 [6]): -84%
growth at 1 µM (UACC-257 [7]): 96%
growth at 100 µM (OVCAR-4 [8]): -40%
IC50 (MDA-MB-231): 1100 nM
growth at 1 µM (MCF7): 49%
growth at 100 µM (NCI-H23 [9]): -21%
growth at 1 µM (UO-31): 72%
growth at 100 µM (UACC-257 [10]): -70%
growth at 0.1 µM (MOLT-4): 101%
GI50 (HCT-116): 369 nM
TGI (HCT-116): 1710 nM
growth at 1 µM (SN12C [11]): 85%
growth at 100 µM (OVCAR-8): -15%
growth at 0.01 µM (NCI-H522): 91%
growth at 0.1 µM (SN12C [12]): 98%
growth at 0.01 µM (SNB-19): 91%
growth at 10 µM (TK-10): 25%
growth at 10 µM (HT-29): -28%

COc1cc(-c2cc(/C=C/C(=O)c3ccc(N)cc3)[nH]n2)cc(OC)c1OC
growth at 1 µM (DU-145): 78%
growth at 1 µM (RXF 393 [1]): 67%
GI50 (NCI-H322M): 2230 nM
TGI (NCI-H322M): 5590 nM
CC50 (NCI-H322M): 20900 nM
growth at 10 µM (K562): 2%
growth at 0.1 µM (NCI-H460): 102%
growth at 0.01 µM (OVCAR-5 [2]): 90%
growth at 0.01 µM (OVCAR-3): 101%
growth at 10 µM (SK-OV-3): -9%
growth at 0.01 µM (NCI-H23 [3]): 102%
growth at 0.1 µM (HCC 2998): 108%
growth at 0.01 µM (NCI/ADR-RES): 106%
growth at 100 µM (HL-60(TB)): -12%
growth at 0.1 µM (COLO 205): 100%
GI50 (OVCAR-4 [4]): 1400 nM
LC50 (OVCAR-4 [4]): 23700 nM
TGI (OVCAR-4 [4]): 5440 nM
growth at 100 µM (U-251): -98%
GI50 (PC-3): 2210 nM
LC50 (PC-3): > 100000 nM
TGI (PC-3): 10400 nM
GI50 (NCI-H226): 1710 nM
LC50 (concentration killing 50% of cells) (NCI-H226): 7180 nM
TGI (NCI-H226): 3510 nM
growth at 100 µM (OVCAR-5 [5]): -66%
growth at 10 µM (RXF 393 [6]): -64%
growth at 1 µM (UACC-257 [7]): 91%
growth at 100 µM (OVCAR-4 [8]): -96%
IC50 (MDA-MB-231): 2000 nM
growth at 1 µM (MCF7): 66%
growth at 100 µM (NCI-H23 [9]): -55%
growth at 1 µM (UO-31): 71%
growth at 100 µM (UACC-257 [10]): -93%
growth at 0.1 µM (MOLT-4): 102%
GI50 (HCT-116): 1100 nM
LC50 (HCT-116): 6190 nM
TGI (HCT-116): 2610 nM
growth at 1 µM (SN12C [11]): 85%
growth at 100 µM (OVCAR-8): -91%
growth at 0.01 µM (NCI-H522): 92%
growth at 0.1 µM (SN12C [12]): 99%
growth at 0.01 µM (SNB-19): 96%
growth at 10 µM (TK-10): 26%
growth at 10 µM (HT-29): -38%
